Experimental data published in patent US20040220164A1, “Triaza compound immunoregulatory agents” (priority 2001, published 2004).
Where two headings read alike, the source gives them in different places.

Experiments:
Assay type in all cases: cell-based
HIV-1 strain NL4.3 = assay: Anti-HIV-1 assay (p24 Ag ELISA); conditions: for IC50: read-out: IC50 against HIV-1 NL4.3; for p24 viral core antigen in supernatant: MT-4, NL4.3
Experimental: (§1) The antiviral activity of CADA against HIV-1 and RHV-7 was investigated. PBMCs and […] cell-depleted PBMCs (removed with CD8 magnetic beads; Dynal AS, Oslo, Norway), previously activated with purified PHA (2 μg/ml) and rhIL-2 (1 ng/ml) for 3 days, were pelleted and exposed to HIV-1 (1 ng p24 Ag per 10^6 cells) for 2 hours at 370C. Then the cells were washed three times with warm medium and cultured in complete medium containing rhIL-2 (1 ng/ml) in the presence or absence of different concentrations of CADA hydrochloride. The anti-HIV-1 assays were also performed in MT-4 and SupT1 cells. CADA hydrochloride was diluted in the plates, then the MT-4 cells or SupT1 cells were added and finally the T-tropic HIV-1 strains. The supernatant was collected at day 5 for MT-4 cells, day 8 for SupT1 cells and day 12 for PBMCs, and stored at −20° C. and analyzed for HIV-1 core antigen by p24 Ag ELISA (NEN, Brussels, Belgium). The SupT1 cells were refreshed on day 4, and half of the medium and cells were replaced and fresh CADA-free medium was added. For the PBMCs, fresh culture medium was added at day 6 containing rhIL-2 (but no CADA). For the anti-HHV-7 assays in PBMCs, CADA hydrochloride was diluted in a plate, 2×10˜cells were added and then HHV-7 (KHR strain) was added in complete medium containing rhIL-2 (1 ng/ml). Fresh culture medium was added again at day 6 containing rhIL-2 (but no CADA). The same infection protocol was used for the SupT1 cells, but without rhIL-2. The SupT1 cells were refreshed on day 4 and day 8, half of the medium and the cells were replaced, and fresh medium without CADA was added. The HHV-7 antigen expression was monitored (at day 12) with a specific mAb to HHV-7 (RK-4) (Advanced Biotechnologies, Columbia, Md.) by flow cytometry, as described previously (Thang, Y., et al., Antiviral Res. 43:23-35 (1999)).
(§2) Table 4 presents the results for MT-4 cells pretreated with CADA for 1 day at 8.1 μM and then infected with the HIV-1 strain NL4.3 or RF in the presence or absence of CADA. […] As three CD4 binding events are needed to efficiently activate HIV-1 Env trimers (Layne, S. P., et al., Nature 346: 602-605 (1990)), multimeric CD4 binding is required for HIV infection, further confirming that receptor density plays a crucial role in the efficiency of viral infectivity (Platt, E. J., et al., J. Virol. 71: 883-890 (1997)). […] Primary HIV isolates seem to be much more dependent on the level of CD4 expression (Kabat; D., et al., J. Virol. 68:2570-2577 (1994)). […] Although CD4-independent viruses are described (Hofflian, T. L., et al., Proc. Natl. Acad. Sci. U.S.A. 96: 63 59-6364 (1999)), these are much more sensitive to neutralization by antibodies, which explains the rarity of CD4-independent wild-type HIV variants (Kolchinski, P., et al., J. Virol. 75: 204 1-2050 (2001)).

HIV-1 strain RF = assay: Anti-HIV-1 assay (p24 Ag ELISA); conditions: for IC50: read-out: IC50 against HIV-1 RF; for p24 viral core antigen in supernatant: MT-4, RF
Experimental: as §1, §2

[1] = test system: CCR5-using (R5) HIV-1 strain BaL; assay: Anti-HIV-1 assay (p24 Ag ELISA); conditions: Human immunodeficiency virus 1, BAL, PBMC; read-out: IC50 against HIV-1 BaL
Experimental: as §1

HIV-1 strain IIIB = assay: Anti-HIV-1 assay (p24 Ag ELISA); conditions: Human immunodeficiency virus 1, IIIB, read-out: IC50 against HIV-1 IIIB
Experimental: as §1

[2] = test system: 6 different primary HIV-1 isolates; assay: Activity against primary HIV-1 isolates in PBMCs; conditions: read-out: activity against primary HIV-1 isolates, range
[3] = Cytotoxic concentration (Example 2); conditions: human, MT-4 cells; read-out: cytotoxic concentration (CC50)
[4] = Cytotoxic concentration (Example 2); conditions: human, SupT1 cells; read-out: cytotoxic concentration (CC50)
[5] = Cytotoxic concentration (Example 2); conditions: human, PBMC
CD4 = CD4 (Homo sapiens, UniProt P01730); assay: Intracellular CD4 staining; parameters: To study the effect of the CADA derivatives on surface CD4 antigen expression, MT-4 and SupT1 cells were incubated; endogenous in cells; host or cells: MT-4, SupT1, PBMC; conditions: SupT1 cells, CADA 3.2 μM, 4 days; untreated 97.3%
Experimental: FIGS. 3A-3B. Intracellular CD4 staining in SupT1 cells after incubation with CADA hydrochloride (3.2 μM) for 4 days. (A) The intracellular CD4 expression of SupT1 cells cultured in medium alone and (B) treated with CADA for 4 days.
The effect of CADA on the intracellular presence of CD4 was also investigated. […] Similar results were also obtained in MT-4 cells and in PBMCs, and with two other anti-CD4 mAbs (OKT4A and OKT4).

[6] = Human immunodeficiency virus 1, MT4, MT-4 cells
[7] = Human immunodeficiency virus 1, PBMC
[8] = Human immunodeficiency virus 1, SUP-T1, SupT1 cells
[9] = pre-treated (CADA 8.1 μM, 24 hours), CADA 0.13 μM after infection
[10] = pre-treated (CADA 8.1 μM, 24 hours), CADA 0.6 μM after infection
[11] = pre-treated (CADA 8.1 μM, 24 hours), CADA 3.2 μM after infection

SMILES: C=C1CN(S(=O)(=O)c2ccc(C)cc2)CCCN(Cc2ccccc2)CCCN(S(=O)(=O)c2ccc(C)cc2)C1 [CADA]
- IC50 (HIV-1 strain NL4.3; [6]): 500 nM
- IC50 (HIV-1 strain NL4.3; [7]): 1600 nM
- IC50 (HIV-1 strain NL4.3; [8]): 3100 nM
- p24 viral core antigen in supernatant (HIV-1 strain NL4.3; cells pre-treated with CADA hydrochloride 8.1 μM 24 hours, medium without CADA after infection, untreated control 158627): 34839 pg/mL
- p24 viral core antigen in supernatant (HIV-1 strain NL4.3; not pre-treated, CADA 0.13 μM): 127838 pg/mL
- p24 viral core antigen in supernatant (HIV-1 strain NL4.3; not pre-treated, CADA 0.6 μM): 63098 pg/mL
- p24 viral core antigen in supernatant (HIV-1 strain NL4.3; not pre-treated, CADA 3.2 μM): <5 pg/mL
- p24 viral core antigen in supernatant (HIV-1 strain NL4.3; [9]): 33785 pg/mL
- p24 viral core antigen in supernatant (HIV-1 strain NL4.3; [10]): <5 pg/mL
- p24 viral core antigen in supernatant (HIV-1 strain NL4.3; [11]): <5 pg/mL
- IC50 (HIV-1 strain RF; [6]): 900 nM
- IC50 (HIV-1 strain RF; [7]): 1900 nM
- IC50 (HIV-1 strain RF; [8]): 1800 nM
- p24 viral core antigen in supernatant (HIV-1 strain RF; cells pre-treated with CADA hydrochloride 8.1 μM 24 hours, medium without CADA after infection, untreated control 100002): 42853 pg/mL
- p24 viral core antigen in supernatant (HIV-1 strain RF; not pre-treated, CADA 0.13 μM): 75118 pg/mL
- p24 viral core antigen in supernatant (HIV-1 strain RF; not pre-treated, CADA 0.6 μM): 56139 pg/mL
- p24 viral core antigen in supernatant (HIV-1 strain RF; not pre-treated, CADA 3.2 μM): <5 pg/mL
- p24 viral core antigen in supernatant (HIV-1 strain RF; [9]): 35894 pg/mL
- p24 viral core antigen in supernatant (HIV-1 strain RF; [10]): <5 pg/mL
- p24 viral core antigen in supernatant (HIV-1 strain RF; [11]): <5 pg/mL
- IC50 [1]: 800 nM
- IC50 (HIV-1 strain IIIB; MT4, MT-4 cells): 300 nM
- IC50 (HIV-1 strain IIIB; PBMC): 600 nM
- IC50 (HIV-1 strain IIIB; SUP-T1, SupT1 cells): 900 nM
- IC50 [2]: 2 to 2300 nM
- CC50 [3]: 134000 nM
- CC50 [4]: 185000 nM
- CC50 [5]: 73000 nM
- percentage of intracellular CD4 expression (CD4): 1.3%
